Test results reported in patent US11318138B2, “Methods for treating B cell proliferative disorders” (priority 2013, dated 2022).

Tests used:
JEKO-1 cells = experiment: MCL cell line culture with Ibrutinib and/or PD 0332991: viability, cell cycle, apoptosis, live cells; type: cell-based; settings: JEKO-1, Ibrutinib 72 h, Trypan blue exclusion and ToPro-3 FACS
[1] = system: chicken lymphoma DL40 cell line; settings: model chicken lymphoma DL40 cell line; cited from earlier work
[2] = system: PIK3IP1 mRNA in MAVER-1 cells; experiment: q-RT-PCR analysis of PIK3IP1 mRNA expression in MCL cells; type: cell-based; settings: MAVER-1, PD (30 h) alone or Ibrutinib (24 h) alone
MINO cells = experiment: MCL cell line culture with Ibrutinib and/or PD 0332991: viability, cell cycle, apoptosis, live cells; type: cell-based
SP53 cells = settings: SP53, Ibrutinib 72 h, at the G1-S transition
MAVER-1 cells = experiment: MCL cell line culture with Ibrutinib and/or PD 0332991: viability, cell cycle, apoptosis, live cells; type: cell-based; settings: MAVER-1, Ibrutinib 72 h, Trypan blue exclusion and ToPro-3 FACS
MCL patient (Pt 7) = settings: Pt 7, Ibrutinib 560 mg daily
[3] = system: CCL3, CCL4, TNF and IL10 expression in MCL cells; settings: MCL cells ex vivo; cited from earlier work
[4] = system: PIK3IP1 mRNA in JEKO-1 cells; experiment: q-RT-PCR analysis of PIK3IP1 mRNA expression in MCL cells; type: cell-based; settings: JEKO-1, PD (30 h) alone or Ibrutinib (24 h) alone
recurrent MCL patients = settings: cited from earlier work

## C=CC(=O)N1CCC[C@@H](n2nc(-c3ccc(Oc4ccccc4)cc3)c3c(N)ncnc32)C1 [Ibrutinib, (R)-1-(3-(4-amino-3-(4-phenoxyphenyl)-1H-pyrazolo[3,4-d]pyrimidin-1-yl)piperidin-1-yl)prop-2-en-1-one]
JEKO-1 cells
  sensitivity of cells to ibrutinib (viability, DNA fragmentation): completely refractory
[1]
  effect of C481S BTK mutation on ibrutinib sensitivity: conferred resistance
[2]
  PIK3IP1 mRNA induction, single agent: modestly induced
MINO cells; Ibrutinib 72 h
  toxicity to cells: not toxic
MINO cells; Ibrutinib 72 h (1 μM)
  S phase entry (BrdU pulsing/PI analysis): moderately inhibiting
SP53 cells
  apoptosis (accumulation of sub 2N cells, reduction of S phase cells): potently induced apoptosis
MAVER-1 cells
  sensitivity of cells to ibrutinib (viability, DNA fragmentation): completely refractory
MCL patient (Pt 7)
  duration of response before progression: 14 months
[3]
  expression of CCL3, CCL4, TNF and IL10: suppress
[4]
  PIK3IP1 mRNA induction, single agent: modestly induced

## CC(=O)c1c(C)c2cnc(Nc3ccc(N4CCNCC4)cn3)nc2n(C2CCCC2)c1=O [PD 0332991]
[2]
  PIK3IP1 mRNA induction, single agent: modestly induced
Recurrent MCL patients
  cell cycle effect in patients: prolonged early G1 arrest
  clinical response: durable clinical response
[4]
  PIK3IP1 mRNA induction, single agent: modestly induced
